Assay results as given in patent EP0913089A1, “Synergistic herbicidal composition containing R-imazethapyr and R-imazapyr and method for controlling weeds therewith” (American Cyanamid Company, priority 1997, dated 1999).

Experiments:
Test in all cases: Greenhouse postemergence weed control, visual rating (Example 1)
Set-up in all cases: scale not given here
Details in all cases: approx. 3 weeks after treatment
[1] = system: CHEAL; type: in vivo, Chenopodium album, L.
Protocol: (§1) In this evaluation, plants are grown in standard greenhouse soil for 10-14 days until they are at the 2-to 4-leaf stage. Said plants are then sprayed with an aqueous solution of the test compounds which contains 0.25% of a non-ionic surfactant and 1% of a 28-0-0 liquid fertilizer. Each treatment is replicated 3 to 4 times. Approximately 3 weeks after treatment visual ratings are made using the rating scale shown below. The data are averaged and shown on Table I. [table] [table]

[2] = system: ABUTH; type: in vivo, Abutilon theophrasti, Medic.
Protocol: as §1

[3] = system: SETVI; type: in vivo, Setaria viridis, (L) Beauv
Protocol: as §1

[4] = system: AMBEL; type: in vivo, Ambrosia artemisiifolia, L.
Protocol: as §1

## CC(C)C1(C)N=C(c2ncccc2C(=O)O)NC1=O (racemic) [Imazapyr]
[1]; Rate 2.016 g/ha
  WEED CONTROL CHEAL: 6.3
[1]; Rate 4.00 g/ha
  WEED CONTROL CHEAL: 8.0
[1]; Rate 8.00 g/ha
  WEED CONTROL CHEAL: 8.8
[1]; Rate 16.00 g/ha
  WEED CONTROL CHEAL: 9.0
[1]; Rate 32.00 g/ha
  WEED CONTROL CHEAL: 9.0
[1]; Rate 48.00 g/ha
  WEED CONTROL CHEAL: 9.0
[1]; Rate 64.00 g/ha
  WEED CONTROL CHEAL: 9.0
[2]; Rate 2.016 g/ha
  WEED CONTROL ABUTH: 4.8
[2]; Rate 4.00 g/ha
  WEED CONTROL ABUTH: 6.3
[2]; Rate 8.00 g/ha
  WEED CONTROL ABUTH: 7.5
[2]; Rate 16.00 g/ha
  WEED CONTROL ABUTH: 8.5
[2]; Rate 32.00 g/ha
  WEED CONTROL ABUTH: 9.0
[2]; Rate 48.00 g/ha
  WEED CONTROL ABUTH: 9.0
[2]; Rate 64.00 g/ha
  WEED CONTROL ABUTH: 9.0
[3]; Rate 2.016 g/ha
  WEED CONTROL SETVI: 5.3
[3]; Rate 4.00 g/ha
  WEED CONTROL SETVI: 6.8
[3]; Rate 8.00 g/ha
  WEED CONTROL SETVI: 9.0
[3]; Rate 16.00 g/ha
  WEED CONTROL SETVI: 9.0
[3]; Rate 32.00 g/ha
  WEED CONTROL SETVI: 9.0
[3]; Rate 48.00 g/ha
  WEED CONTROL SETVI: 9.0
[3]; Rate 64.00 g/ha
  WEED CONTROL SETVI: 9.0
[4]; Rate 2.016 g/ha
  WEED CONTROL AMBEL: 2.5
[4]; Rate 4.00 g/ha
  WEED CONTROL AMBEL: 4.0
[4]; Rate 8.00 g/ha
  WEED CONTROL AMBEL: 5.0
[4]; Rate 16.00 g/ha
  WEED CONTROL AMBEL: 7.0
[4]; Rate 32.00 g/ha
  WEED CONTROL AMBEL: 7.8
[4]; Rate 48.00 g/ha
  WEED CONTROL AMBEL: 8.8
[4]; Rate 64.00 g/ha
  WEED CONTROL AMBEL: 8.8

## CCc1cnc(C2=NC(C)(C(C)C)C(=O)N2)c(C(=O)O)c1 (racemic) [Imazethapyr]
[1]; Rate 4.00 g/ha
  WEED CONTROL CHEAL: 2.5
[1]; Rate 8.00 g/ha
  WEED CONTROL CHEAL: 2.3
[1]; Rate 16.00 g/ha
  WEED CONTROL CHEAL: 3.5
[1]; Rate 32.00 g/ha
  WEED CONTROL CHEAL: 7.0
[1]; Rate 64.00 g/ha
  WEED CONTROL CHEAL: 8.0
[1]; Rate 96.00 g/ha
  WEED CONTROL CHEAL: 9.0
[1]; Rate 128.00 g/ha
  WEED CONTROL CHEAL: 9.0
[2]; Rate 4.00 g/ha
  WEED CONTROL ABUTH: 2.5
[2]; Rate 8.00 g/ha
  WEED CONTROL ABUTH: 3.0
[2]; Rate 16.00 g/ha
  WEED CONTROL ABUTH: 4.0
[2]; Rate 32.00 g/ha
  WEED CONTROL ABUTH: 6.3
[2]; Rate 64.00 g/ha
  WEED CONTROL ABUTH: 6.3
[2]; Rate 96.00 g/ha
  WEED CONTROL ABUTH: 9.0
[2]; Rate 128.00 g/ha
  WEED CONTROL ABUTH: 9.0
[3]; Rate 4.00 g/ha
  WEED CONTROL SETVI: 3.5
[3]; Rate 8.00 g/ha
  WEED CONTROL SETVI: 4.5
[3]; Rate 16.00 g/ha
  WEED CONTROL SETVI: 4.3
[3]; Rate 32.00 g/ha
  WEED CONTROL SETVI: 6.0
[3]; Rate 64.00 g/ha
  WEED CONTROL SETVI: 7.5
[3]; Rate 96.00 g/ha
  WEED CONTROL SETVI: 9.0
[3]; Rate 128.00 g/ha
  WEED CONTROL SETVI: 9.0
[4]; Rate 4.00 g/ha
  WEED CONTROL AMBEL: 2.5
[4]; Rate 8.00 g/ha
  WEED CONTROL AMBEL: 2.8
[4]; Rate 16.00 g/ha
  WEED CONTROL AMBEL: 4.0
[4]; Rate 32.00 g/ha
  WEED CONTROL AMBEL: 6.0
[4]; Rate 64.00 g/ha
  WEED CONTROL AMBEL: 6.5
[4]; Rate 96.00 g/ha
  WEED CONTROL AMBEL: 7.5
[4]; Rate 128.00 g/ha
  WEED CONTROL AMBEL: 8.8

## CC(C)[C@@]1(C)N=C(c2ncccc2C(=O)O)NC1=O [R-Imazapyr, R-imazapyr]
[1]; Rate 1.34 g/ha
  WEED CONTROL CHEAL: 7.3
[1]; Rate 2.68 g/ha
  WEED CONTROL CHEAL: 7.8
[1]; Rate 5.36 g/ha
  WEED CONTROL CHEAL: 8.3
[1]; Rate 10.72 g/ha
  WEED CONTROL CHEAL: 9.0
[1]; Rate 21.44 g/ha
  WEED CONTROL CHEAL: 9.0
[1]; Rate 32.16 g/ha
  WEED CONTROL CHEAL: 9.0
[1]; Rate 42.88 g/ha
  WEED CONTROL CHEAL: 9.0
[2]; Rate 1.34 g/ha
  WEED CONTROL ABUTH: 4.3
[2]; Rate 2.68 g/ha
  WEED CONTROL ABUTH: 5.8
[2]; Rate 5.36 g/ha
  WEED CONTROL ABUTH: 7.3
[2]; Rate 10.72 g/ha
  WEED CONTROL ABUTH: 8.0
[2]; Rate 21.44 g/ha
  WEED CONTROL ABUTH: 9.0
[2]; Rate 32.16 g/ha
  WEED CONTROL ABUTH: 9.0
[2]; Rate 42.88 g/ha
  WEED CONTROL ABUTH: 9.0
[3]; Rate 1.34 g/ha
  WEED CONTROL SETVI: 6.0
[3]; Rate 2.68 g/ha
  WEED CONTROL SETVI: 7.5
[3]; Rate 5.36 g/ha
  WEED CONTROL SETVI: 8.0
[3]; Rate 10.72 g/ha
  WEED CONTROL SETVI: 9.0
[3]; Rate 21.44 g/ha
  WEED CONTROL SETVI: 9.0
[3]; Rate 32.16 g/ha
  WEED CONTROL SETVI: 9.0
[3]; Rate 42.88 g/ha
  WEED CONTROL SETVI: 9.0
[4]; Rate 1.34 g/ha
  WEED CONTROL AMBEL: 1.5
[4]; Rate 2.68 g/ha
  WEED CONTROL AMBEL: 4.5
[4]; Rate 5.36 g/ha
  WEED CONTROL AMBEL: 5.0
[4]; Rate 10.72 g/ha
  WEED CONTROL AMBEL: 6.3
[4]; Rate 21.44 g/ha
  WEED CONTROL AMBEL: 7.5
[4]; Rate 32.16 g/ha
  WEED CONTROL AMBEL: 9.0
[4]; Rate 42.88 g/ha
  WEED CONTROL AMBEL: 8.5

## CCc1cnc(C2=N[C@](C)(C(C)C)C(=O)N2)c(C(=O)O)c1 [R-Imazethapyr, R-imazethapyr]
[1]; Rate 2.68 g/ha
  WEED CONTROL CHEAL: 2.3
[1]; Rate 5.36 g/ha
  WEED CONTROL CHEAL: 3.8
[1]; Rate 10.72 g/ha
  WEED CONTROL CHEAL: 4.0
[1]; Rate 21.44 g/ha
  WEED CONTROL CHEAL: 6.8
[1]; Rate 42.88 g/ha
  WEED CONTROL CHEAL: 7.0
[1]; Rate 64.30 g/ha
  WEED CONTROL CHEAL: 9.0
[1]; Rate 85.76 g/ha
  WEED CONTROL CHEAL: 9.0
[2]; Rate 2.68 g/ha
  WEED CONTROL ABUTH: 4.8
[2]; Rate 5.36 g/ha
  WEED CONTROL ABUTH: 4.8
[2]; Rate 10.72 g/ha
  WEED CONTROL ABUTH: 4.8
[2]; Rate 21.44 g/ha
  WEED CONTROL ABUTH: 6.8
[2]; Rate 42.88 g/ha
  WEED CONTROL ABUTH: 7.0
[2]; Rate 64.30 g/ha
  WEED CONTROL ABUTH: 9.0
[2]; Rate 85.76 g/ha
  WEED CONTROL ABUTH: 9.0
[3]; Rate 2.68 g/ha
  WEED CONTROL SETVI: 4.8
[3]; Rate 5.36 g/ha
  WEED CONTROL SETVI: 4.5
[3]; Rate 10.72 g/ha
  WEED CONTROL SETVI: 5.5
[3]; Rate 21.44 g/ha
  WEED CONTROL SETVI: 6.5
[3]; Rate 42.88 g/ha
  WEED CONTROL SETVI: 7.5
[3]; Rate 64.30 g/ha
  WEED CONTROL SETVI: 9.0
[3]; Rate 85.76 g/ha
  WEED CONTROL SETVI: 9.0
[4]; Rate 2.68 g/ha
  WEED CONTROL AMBEL: 3.8
[4]; Rate 5.36 g/ha
  WEED CONTROL AMBEL: 3.5
[4]; Rate 10.72 g/ha
  WEED CONTROL AMBEL: 3.0
[4]; Rate 21.44 g/ha
  WEED CONTROL AMBEL: 4.8
[4]; Rate 42.88 g/ha
  WEED CONTROL AMBEL: 6.5
[4]; Rate 64.30 g/ha
  WEED CONTROL AMBEL: 8.8
[4]; Rate 85.76 g/ha
  WEED CONTROL AMBEL: 9.0
